Laboratory results from ChEMBL document CHEMBL1133560, “Design and synthesis of new orally active nonpeptidic inhibitors of human neutrophil elastase” (J Med Chem, 2000).

Tests used:
[1] = (§1) Effective dose determined in an animal model which lasted for more than 8 h; assay type: functional
[2] = Percent oral bioavailability evaluated in dog; assay type: ADME, organism-based, Canis lupus familiaris; conditions: in vivo
[3] = Percent oral bioavailability evaluated in rat; assay type: ADME, organism-based; conditions: in vivo
[4] = Percent oral bioavailability evaluated in monkey; assay type: ADME, organism-based; conditions: cercopithecidae, in vivo
[5] = as §1; assay type: ADME

CC(C)C(NC(=O)Cn1c(-c2ccccc2)ncc(N)c1=O)C(=O)c1nnc(C(C)(C)C)o1 (stereo not given)
ED50 [1]: 1.4 mg/kg | bioavailability [2]: 31% | bioavailability [3]: 51% | bioavailability [4]: 18%

CC(C)C(NC(=O)Cn1c(-c2ccc(F)cc2)ncc(N)c1=O)C(=O)C(F)(F)F (stereo not given)
ED50 [5]: 7.5 mg/kg
